The source of these data is patent US20210169892A1, “MODULATORS OF THE INTEGRATED STRESS PATHWAY” (Calico Life Sciences LLC, priority 2017, published 2021).

For the test, the system named is HEK293T cells carrying the ATF4 luciferase reporter. As to the kind of experiment: ATF4-Luc assay (in vitro model of vanishing white matter disease). The format is cell-based. The conditions noted are these: Homo sapiens, HEK-293T; HEK293T cells with ATF4 luciferase reporter, 1 μg/mL tunicamycin, 7 hours, One Glo luminescence. As to the method: In order to test exemplary compounds of the invention in a cellular context, a stable VWMD cell line was first constructed. The ATF4 reporter was prepared by fusing the human full-length ATF4 5′-UTR (NCBI Accession No. BC022088.2) in front of the firefly luciferase (FLuc) coding sequence lacking the initiator methionine as described in Sidrauski et al (eLife 2013). The construct was used to produce recombinant retroviruses using standard methods and the resulting viral supernatant was used to transduce HEK293T cells, which were then subsequently selected with puromycin to generate a stable cell line.
HEK293T cells carrying the ATF4 luciferase reporter were plated on polylysine coated 384-well plates (Greiner Bio-one) at 30,000 cells per well. Cells were treated the next day with 1 μg/mL tunicamycin and 200 nM of a compound of Formula (I) for 7 hours. Luminescence was measured using One Glo (Promega) as specified by the manufacturer. Cells were maintained in DMEM with L-glutamine supplemented with 10% heat-inactivated FBS (Gibco) and Antibiotic-Antimycotic solution (Gibco).
Table 2 below summarizes the EC50 data obtained using the ATF4-Luc assay for exemplary compounds of the invention.
A word on the EC50: it is the concentration giving half of the maximal effect. Take `Cc1nn(C)cc1S(=O)(=O)N1CC(C(=O)NC23CC(NC(=O)COc4ccc(Cl)c(F)c4)(C2)C3)Oc2ccc(Cl)cc21` (stereo not drawn) [Compound 173, 6-chloro-N-{3-[2-(4-chloro-3-fluorophenoxy)acetamido]bicyclo[1.1.1]pentan-1-yl}-4-(1,3-dimethyl-1H-pyrazole-4-sulfonyl)-3,4-dihydro-2H-1,4-benzoxazine-2-carboxamide]: the EC50 lay within 500 to 2000 nM.
Take `O=C(COc1ccc(Cl)c(F)c1)NC12CC(NC(=O)[C@@H]3CN(C(=O)[C@H]4C[C@H]4F)c4cc(Cl)ccc4O3)(C1)C2` (single isomer, unassigned) [Compound 144]: the EC50 fell in the range of 50 to 250 nM.
Next, `O=C(COc1ccc(Cl)c(F)c1)NC12CC(NC(=O)C3CC(NCCO)c4cc(Cl)ccc4O3)(C1)C2` (stereo not drawn) [Compound 188, 6-chloro-N-{3-[2-(4-chloro-3-fluorophenoxy)acetamido]bicyclo[1.1.1]pentan-1-yl}-4-[(2-hydroxyethyl)amino]-3,4-dihydro-2H-1-benzopyran-2-carboxamide]: 10 to 50 nM; `O=C(COc1ccc(Cl)c(F)c1)NC12CCC(NC(=O)[C@H]3CCc4cc(F)ccc4O3)(CC1)C[C@@H]2O` [Compound 106, (2R)—N-{(3S)-4-[2-(4-chloro-3-fluorophenoxy)acetamido]-3-hydroxybicyclo[2.2.2]octan-1-yl}-6-fluoro-3,4-dihydro-2H-1-benzopyran-2-carboxamide]: under 10 nM.
In the case of `O=C(COc1ccc(Cl)c(F)c1)NC12CC(NC(=O)C3CN(C(=O)C(F)(F)C(F)(F)C(F)(F)F)c4cc(Cl)ccc4O3)(C1)C2` (stereo not drawn) [Compound 159, 6-chloro-N-{3-[2-(4-chloro-3-fluorophenoxy)acetamido]bicyclo[1.1.1]pentan-1-yl}-4-(2,2,3,3,4,4,4-heptafluorobutanoyl)-3,4-dihydro-2H-1,4-benzoxazine-2-carboxamide] it was under 10 nM; in that of `O=C(COc1ccc(Cl)c(F)c1)NC12CCC(NC(=O)C3CCc4cc(F)ccc4O3)(CC1)[C@@H](O)C2` (stereo partly drawn) [Compound 200, N-{(2S)-4-[2-(4-chloro-3-fluorophenoxy)acetamido]-2-hydroxybicyclo[2.2.2]octan-1-yl}-6-fluoro-3,4-dihydro-2H-1-benzopyran-2-carboxamide], under 10 nM.
In the case of `O=C(COc1ccc(Cl)c(F)c1)NC12CC(NC(=O)C3CN(C(=O)[C@@H]4C[C@@H]4F)c4cc(Cl)ccc4O3)(C1)C2` (stereo partly drawn) [Compound 175, 6-chloro-N-{3-[2-(4-chloro-3-fluorophenoxy)acetamido]bicyclo[1.1.1]pentan-1-yl}-4-[(1S,2S)-2-fluorocyclopropane-1-carbonyl]-3,4-dihydro-2H-1,4-benzoxazine-2-carboxamide] it was 250 to 500 nM; in that of `O=C(COc1ccc(Cl)c(F)c1)NC12CC(NC(=O)[C@@H]3COc4ccccc4O3)(C1)C2` [Compound 125, (2S)—N-{3-[2-(4-chloro-3-fluorophenoxy)acetamido]bicyclo[1.1.1]pentan-1-yl}-2,3-dihydro-1,4-benzodioxine-2-carboxamide], 50 to 250 nM.
Turning to `Cc1ccc(C(=O)N2CC(C(=O)NC34CC(NC(=O)COc5ccc(Cl)c(F)c5)(C3)C4)Oc3ccc(Cl)cc32)o1` (stereo not drawn) [Compound 145, 6-chloro-N-{3-[2-(4-chloro-3-fluorophenoxy)acetamido]bicyclo[1.1.1]pentan-1-yl}-4-(5-methylfuran-2-carbonyl)-3,4-dihydro-2H-1,4-benzoxazine-2-carboxamide], the EC50 fell in the range of 50 to 250 nM.
Next, `O=C(COc1ccc(Cl)c(F)c1)NC12CCC(NC(=O)[C@H]3COc4cc(Cl)ccc4O3)(CC1)C[C@@H]2O` [Compound 115, (2R)-6-chloro-N-{(3S)-4-[2-(4-chloro-3-fluorophenoxy)acetamido]-3-hydroxybicyclo[2.2.2]octan-1-yl}-2,3-dihydro-1,4-benzodioxine-2-carboxamide]: under 10 nM; `O=C(COc1ccc(Cl)c(F)c1)NC12CC(NC(=O)C3CN(C(=O)C4CCOCC4)c4cc(Cl)ccc4O3)(C1)C2` (stereo not drawn) [Compound 151, 6-chloro-N-{3-[2-(4-chloro-3-fluorophenoxy)acetamido]bicyclo[1.1.1]pentan-1-yl}-4-(oxane-4-carbonyl)-3,4-dihydro-2H-1,4-benzoxazine-2-carboxamide]: 500 to 2000 nM; `CC1(C(=O)N2CC(C(=O)NC34CC(NC(=O)COc5ccc(Cl)c(F)c5)(C3)C4)Oc3ccc(Cl)cc32)CC1(F)F` (stereo not drawn) [Compound 179, 6-chloro-N-{3-[2-(4-chloro-3-fluorophenoxy)acetamido]bicyclo[1.1.1]pentan-1-yl}-4-(2,2-difluoro-1-methylcyclopropane-1-carbonyl)-3,4-dihydro-2H-1,4-benzoxazine-2-carboxamide]: 500 to 2000 nM.
In the case of `O=C(COc1ccc(Cl)c(F)c1)NC12CC(NC(=O)C3CN(S(=O)(=O)CC(F)(F)F)c4cc(Cl)ccc4O3)(C1)C2` (stereo not drawn) [Compound 183, 6-chloro-N-{3-[2-(4-chloro-3-fluorophenoxy)acetamido]bicyclo[1.1.1]pentan-1-yl}-4-(2,2,2-trifluoroethanesulfonyl)-3,4-dihydro-2H-1,4-benzoxazine-2-carboxamide] it was 10 to 50 nM; in that of `COCCOCC(=O)N1CC(C(=O)NC23CC(NC(=O)COc4ccc(Cl)c(F)c4)(C2)C3)Oc2ccc(Cl)cc21` (stereo not drawn) [Compound 156, 6-chloro-N-{3-[2-(4-chloro-3-fluorophenoxy)acetamido]bicyclo[1.1.1]pentan-1-yl}-4-[(2-methoxyethoxy)acetyl]-3,4-dihydro-2H-1,4-benzoxazine-2-carboxamide], 10 to 50 nM.
In the case of `COc1cccc(C(=O)N2CC(C(=O)NC34CC(NC(=O)COc5ccc(Cl)c(F)c5)(C3)C4)Oc3ccc(Cl)cc32)c1` (stereo not drawn) [Compound 146, 6-chloro-N-{3-[2-(4-chloro-3-fluorophenoxy)acetamido]bicyclo[1.1.1]pentan-1-yl}-4-(3-methoxybenzoyl)-3,4-dihydro-2H-1,4-benzoxazine-2-carboxamide] it was 500 to 2000 nM.
As for `Cc1cc(S(=O)(=O)N2CC(C(=O)NC34CC(NC(=O)COc5ccc(Cl)c(F)c5)(C3)C4)Oc3ccc(Cl)cc32)c(C(F)(F)F)o1` (stereo not drawn) [Compound 163, 6-chloro-N-{3-[2-(4-chloro-3-fluorophenoxy)acetamido]bicyclo[1.1.1]pentan-1-yl}-4-[5-methyl-2-(trifluoromethyl)furan-3-sulfonyl]-3,4-dihydro-2H-1,4-benzoxazine-2-carboxamide], the EC50 was over 2000 nM.
Next, `O=C(COc1ccc(Cl)c(F)c1)NC12CCC(NC(=O)[C@@H]3CCc4cc(F)ccc4O3)(CC1)[C@@H](O)C2` [Compound 201, (2S)—N-{(2S)-4-[2-(4-chloro-3-fluorophenoxy)acetamido]-2-hydroxybicyclo[2.2.2]octan-1-yl}-6-fluoro-3,4-dihydro-2H-1-benzopyran-2-carboxamide]: under 10 nM.
Next, `O=C(COc1ccc(Cl)c(F)c1)NC12CC(NC(=O)C3CNc4cc(F)c(F)cc4O3)(C1)C2` (stereo not drawn) [Compound 108, N-{3-[2-(4-chloro-3-fluorophenoxy)acetamido]bicyclo[1.1.1]pentan-1-yl}-6,7-difluoro-3,4-dihydro-2H-1,4-benzoxazine-2-carboxamide]: under 10 nM.
